This note sets out measurements from ChEMBL document CHEMBL1201862, “PubChem BioAssay data set” (2004).

One assay has as its target Cytochrome P450 3A4 (Homo sapiens, UniProt P08684).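 Note: CYP3A4 tested as one member of a cytochrome P450 panel screen.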
Assay [1] in a line: cytotoxicity toward NIH3T3 fibroblasts, dose response, counter-screen, cell-based, ATP luminescence, mouse fibroblasts (AID 2010).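 Note: cells exposed to compound for about 90 hours before reading.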 The format is functional.
A short description of assay [2]: inhibitors of intracellular T. cruzi replication, confirmation, NIH3T3 host cells, beta-gal luminescence (AID 2044).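 Note: intracellular parasites grown in NIH/3T3 mouse fibroblasts as host cells; luminescent beta-galactosidase reporter signal from transgenic T. cruzi replicating inside host cells; inhibitors lower the luminescence signal.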 The assay is classed as functional, cell-based.
Assay [3] can be described thus: HEp-2 cell cytotoxicity, dose response, cytotoxicity control for RSV inhibitor project, HTS (AID 2410). The format is functional. The note with it: human respiratory syncytial virus.
Assay [4] is described as follows: Luminescence Cell-Based Dose Retest to Confirm Inhibitors of Cancer Stem Cells. [Related pubchem assays (depositor defined):AID2717, AID2721]. The assay is classed as functional. The note with it: Homo sapiens.
The target in a further assay is Paired box protein Pax-8 (Homo sapiens, UniProt Q06710). Briefly: inhibitors of PAX8-driven TPO luciferase reporter, dose response, RMG-I cells, cherry-pick (AID 687027).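 Note: luciferase reporter driven by Pax8 target thyroperoxidase promoter measured by SteadyGlo luminescence.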 The assay is classed as functional, cell-based. Background: In a reporter assay the amount or activity of a reporter protein is the signal.
Sequence of Paired box protein Pax-8 (Q06710 whole entry): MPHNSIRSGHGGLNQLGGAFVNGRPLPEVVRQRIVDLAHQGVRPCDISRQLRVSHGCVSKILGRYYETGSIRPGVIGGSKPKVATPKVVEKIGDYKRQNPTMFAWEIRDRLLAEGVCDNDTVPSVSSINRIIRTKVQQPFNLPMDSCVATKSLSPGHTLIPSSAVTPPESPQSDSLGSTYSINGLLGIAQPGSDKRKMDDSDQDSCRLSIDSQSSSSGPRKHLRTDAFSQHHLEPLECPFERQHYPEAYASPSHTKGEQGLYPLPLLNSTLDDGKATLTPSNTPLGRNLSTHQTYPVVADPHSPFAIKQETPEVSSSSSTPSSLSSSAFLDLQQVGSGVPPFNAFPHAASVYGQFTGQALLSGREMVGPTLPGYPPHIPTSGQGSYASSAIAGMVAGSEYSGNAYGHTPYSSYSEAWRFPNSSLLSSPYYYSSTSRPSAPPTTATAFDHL
Assay [5] relates to Streptococcus sp. 'group A'. Briefly: growth inhibition of control SK(-) GAS strain, dose response, counter-screen for streptokinase expression inhibitor project, luminescence, kanamycin, BacTiterGlo, confirmation (AID 1900). The assay is classed as functional, organism-based. Background: The purpose of a counterscreen is to sort out artefacts and off-target activity.
A further assay relates to Streptococcus. Kind of assay: Group A Streptococcus viability loss, dose response, counter-screen for streptokinase expression inhibitor project, luminescence, BacTiterGlo (AID 1915).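 Note: potency for reduction of bacterial viability or growth.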 The format is functional, organism-based.

Several values for one entry are separate records, joined by “and”; a condition that tells them apart may be missing. Equal values may be shown once. Activity calls are given as the source filed them.

One may read the AC50 as the concentration giving half of the maximal activity seen. One may read the EC50 as the midpoint of the concentration-response curve. By CC50 is commonly meant the concentration that lowers cell viability or growth by half.

Sequence of Cytochrome P450 3A4 (P08684 whole entry): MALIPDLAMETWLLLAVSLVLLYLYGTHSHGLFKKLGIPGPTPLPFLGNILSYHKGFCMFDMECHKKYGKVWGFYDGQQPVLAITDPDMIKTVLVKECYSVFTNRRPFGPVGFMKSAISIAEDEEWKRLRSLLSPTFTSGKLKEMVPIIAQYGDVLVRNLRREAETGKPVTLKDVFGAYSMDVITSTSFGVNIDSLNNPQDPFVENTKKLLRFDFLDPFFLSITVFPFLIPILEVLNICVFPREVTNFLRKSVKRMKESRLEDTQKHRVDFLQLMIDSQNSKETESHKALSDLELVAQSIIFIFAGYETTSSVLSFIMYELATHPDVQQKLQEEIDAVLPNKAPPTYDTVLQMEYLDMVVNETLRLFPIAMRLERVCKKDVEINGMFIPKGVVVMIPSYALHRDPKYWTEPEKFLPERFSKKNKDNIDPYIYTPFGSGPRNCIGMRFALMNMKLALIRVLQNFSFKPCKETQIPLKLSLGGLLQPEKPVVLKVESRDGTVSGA

Take `COc1ccccc1CNc1ccnc(-c2ccccc2Cl)n1`: the half-maximal activity concentration (AC50) at Cytochrome P450 3A4 is 2.51 µM (inconclusive).

With `COC(=O)C1=CN(Cc2ccc(OC)c(OC)c2)C=C(C(=O)OC)C1c1cccc(O)c1`, the EC50 in assay [1] was > 60 µM (not active); in assay [2], 0.311 µM (active).

For the molecule `O=C(Nc1ccccc1Cl)c1cccc(COc2cc(Cl)ccc2Cl)c1`, in assay [3], the CC50 is > 50 µM (active).

With `COc1ccc(Br)cc1C(=O)Nc1ccccc1N1CCN(C(=O)c2ccccc2)CC1`, the CC50 in assay [3] is 29 µM (active). In addition, the concentration giving a half-maximal response (EC50) in assay [1] was > 60 µM (not active); in assay [2], 1.46 µM (active).

`O=C(NCC1CCCO1)c1ccc([N+](=O)[O-])s1` (centres undefined): the EC50 in assay [1] is > 30 µM (not active); in assay [2] it was 0.728 µM (active).

For `CCCCCn1c(=O)[nH]c2cc(C(=O)NCCCN(C)Cc3ccccc3)ccc2c1=O`, the EC50 in assay [1] is > 60 µM (inconclusive); in assay [2], 0.911 µM (active).

As to `CC12CCC3c4ccc(O)cc4CCC3C1CCC2=O` (centres undefined), the CC50 in assay [3] was 29.6 µM (active).

For `Nc1ncc2c(n1)-c1cc(Cl)ccc1SC2`, the EC50 was > 60 µM (not active) in assay [1] and 1.55 µM (active) in assay [2].

For `CC(=O)NNc1cccc(Cl)n1`, the AC50 in assay [4] was > 195 µM (inactive).

As for `CCN(CC(=O)Nc1c(C(=O)OC)[nH]c2ccc(C)cc12)c1ccc2c(c1)OCO2`, the CC50 in assay [3] is > 50 µM (active).

For the molecule `Cc1nn2c(N3CCN(C)CC3)cc(C(C)(C)C)nc2c1-c1ccccc1`, the EC50 is 4.77 µM (active) in assay [1] and 0.145 µM (active) in assay [2].

As to `COc1ccc2c(c1)CCC1=C2N=C(S)NC1c1ccc(N(C)C)cc1` (centres undefined), the EC50 was > 60 µM (not active) in assay [1] and 2.62 µM (active) in assay [2].

For the molecule `CC1=C(C(N)=O)C(c2cccnc2)n2nc(-c3cccc(C)c3)nc2N1` (centres undefined), the EC50 in assay [1] and in assay [2] was > 60 µM (not active) throughout.

Regarding `COc1ccc(NC(=O)N2CC3(CCN(C(=O)c4ccncc4)CC3)C2)cc1`, the AC50 at Cytochrome P450 3A4 was 15.8 µM (inconclusive).

For the molecule `COc1ccc(N2CCN(C(S)=Nc3cc(C)ccc3C)CC2)cc1`, the AC50 at Cytochrome P450 3A4 was 3.16 µM (inconclusive).

On to `O=C(c1cccc(F)c1)N1CCN(c2cc(N3CCCCC3)c(F)cc2[N+](=O)[O-])CC1`, for which, in assay [3], the CC50 is 22.2 µM (active).

Turning to `O=C(Nc1cccc([N+](=O)[O-])c1)C12CC3CC(C1)CC(n1cnc([N+](=O)[O-])n1)(C3)C2`, the EC50 in assay [1] is > 60 µM (not active); in assay [2], 0.102 µM (active).

For the molecule `COCCNC(=O)CCC1CCN(Cc2ccc(-c3ccccc3)cc2)CC1`, the EC50 in assay [1] is > 60 µM (not active); in assay [2], 1.77 µM (active).

Consider `S=C(Nc1ccccc1)Nc1nc2ccccc2n1CCOc1ccc(Br)cc1`, for which the AC50 in assay [4] is 11.6 µM (active).

For `CN(C)Cc1c[nH]c2ccccc12` [GRAMINE], on Cytochrome P450 3A4, the AC50 was 3.16 µM (inconclusive).

On to `Cn1nnnc1Sc1ncnc2scc(-c3cccc4c3sc3ccccc34)c12`, for which the AC50 is 1.25 µM (active) in assay [4] and 3.89 µM (active) on Paired box protein Pax-8.

For the molecule `C/C(=N\c1ccc(C)cc1C)c1sc2ccccc2c1O`, the CC50 in assay [3] was 17.8 µM (active).

On to `C[C@H](CO)N1C[C@H](C)[C@@H](CN(C)S(=O)(=O)c2ccc(F)cc2)Oc2ccc(NC(=O)Nc3ccc(C(F)(F)F)cc3)cc2C1=O`, for which the AC50 in assay [4] was 4.25 µM (active).

For `COc1ccc(/N=C2\SC(CC(=O)Nc3ccccc3F)C(=O)N2Cc2ccco2)cc1` (centres undefined), the CC50 in assay [3] was 25.1 µM (active).

Take `COc1cccc2cc(-c3csc(CCn4nc(C)cc4C)n3)c(=O)oc12`: the 50% cytotoxic concentration (CC50) in assay [3] is 41.8 µM (active).

Consider `COc1ccccc1-c1c(C)nn2c(N)c(-c3ccccc3)cnc12`, for which the CC50 in assay [3] was 24.2 µM (active).

`COC(=O)c1cc(=O)n(Cc2cccs2)/c(=N/c2ccccc2)s1`: the AC50 in assay [4] was 5.15 µM (active).

Regarding `C=CCn1c2ccccc2c2nnc(SCc3nc(O)[nH]c3C(=O)CCCCC(=O)OCC)nc21`, the cytotoxic concentration (CC50) in assay [3] is > 50 µM (active).

Regarding `C[C@@H]1CN([C@H](C)CO)C(=O)c2cc(NC(=O)Nc3ccc(C(F)(F)F)cc3)ccc2O[C@@H](C)CCCCO[C@H]1CN(C)Cc1ccccc1`, at Paired box protein Pax-8, the concentration at half-maximal activity (AC50) is 12.2 µM (active).

`CCS(=O)(=O)N1Cc2ccccc2CC1C(=O)Nc1nnc(SCc2c(Cl)cccc2Cl)s1` (centres undefined): at Paired box protein Pax-8, the AC50 was 34.9 µM (active).

As for `CCC1CCc2sc(C(=O)NC3CCN(Cc4ccccc4)CC3)cc2C1` (centres undefined), the EC50 in assay [1] is 5.09 µM (active); in assay [2], 0.48 µM (active).

For `CCN(CC(=O)Nc1ccc(S(=O)(=O)N2CCCCC2)cc1)Cc1ccccc1`, the CC50 in assay [3] is 28 µM (active).

For the molecule `O=c1c2ccc([N+](=O)[O-])cc2ncn1CCOc1ccc(Cl)cc1`, the EC50 was > 30 µM (not active) in assay [1] and 0.145 µM (active) in assay [2].

Take `Clc1ccc(-c2csc(N/N=C\c3cccnc3)n2)cc1`: the values for the 50% effective concentration (EC50) in assay [1] and in assay [2] were > 60 µM (not active) and 1.84 µM (active), respectively.

Take `CC[C@H]1CC2CN3CCc4c([nH]c5c([C@H]6C[C@H]7[C@H](CC)CN(C)[C@@H](Cc8c6[nH]c6ccccc86)[C@H]7C(=O)OC)c(OC)ccc45)C(C(=O)OC)(C2)C13`: the concentration at half-maximal activity (AC50) in assay [4] is 1.99 µM (active).

With `CCN(CC)C(=O)N[C@H]1C[C@H]2c3cccc4[nH]cc(c34)C[C@@H]2N(C)C1`, on Cytochrome P450 3A4, the AC50 is 10 µM (inconclusive).

Take `Cc1cccc(NC(=O)c2[nH]cnc2C(=O)N[C@@H](Cc2ccccc2)C(=O)OC(C)(C)C)c1`: the figures for the EC50 (in assay [5]; with Streptococcus) were 2.46 µM (active) and 3.87 µM (active), respectively.

Consider `Cc1ccc(CN2CCN(Cc3ccc(-n4cccn4)cc3C)CC2CCO)cc1` (centres undefined), for which the concentration giving a half-maximal response (EC50) was > 30 µM (not active) in assay [1] and 0.651 µM (active) in assay [2].

As for `O=Cc1ccc(Oc2cc(-c3ccccc3)nc(-c3ccccc3)n2)cc1`, the AC50 in assay [4] is 3.14 µM (active).

For the molecule `CCCCn1c(=N)n(CC(=O)C(C)(C)C)c2ccccc21`, the 50% effective concentration (EC50) is > 60 µM (not active) in assay [1] and 5.54 µM (active) in assay [2].

On to `Cc1c(Cl)cnc(NC(=O)COC(=O)CCS(=O)(=O)c2ccccc2)c1Cl`, for which the AC50 on Cytochrome P450 3A4 was 15.8 µM (inconclusive).

Regarding `CC(=O)OC[C@@H]1O[C@H](CCO/N=C(\C)CCN2CCCc3nc(C)c(C)cc32)C=C[C@@H]1OC(C)=O`, on Cytochrome P450 3A4, the AC50 was 3.98 µM (inconclusive).

For the molecule `CON(C)C(=O)c1nnc2c3ccccc3n(S(=O)(=O)c3ccc(C)cc3)c2n1`, the AC50 at Cytochrome P450 3A4 was 3.98 µM (inconclusive) and 3.16 µM (inconclusive).

As to `Cc1ccc(Nc2cc(C)nc(-c3ccccc3O)n2)cc1`, in assay [3], the CC50 is 14.6 µM (active).

For `Cc1cccc(-n2cc(-c3ccccc3)c3c(N4CCOCC4)ncnc32)c1`, the AC50 in assay [4] is 5.24 µM (active).

In the case of `Cc1ccc(CN2CCCC(C(=O)c3sccc3C)C2)o1` (centres undefined), the EC50 was > 60 µM (not active) in assay [1] and 0.719 µM (active) in assay [2].

Turning to `COc1ccc(-c2nc3cnc(Nc4cccc(OC)c4)nc3n(Cc3cccs3)c2=O)cc1`, the AC50 at Cytochrome P450 3A4 is 6.31 µM (inconclusive).

As to `COc1ccc(/C=N/NC(=O)CCn2cnc(-c3ccccc3)c2-c2ccccc2)cc1OC`, the AC50 in assay [4] was 0.404 µM (active).

For the molecule `CC(C)c1ccc(C(=O)NCCCN(C)C)cc1`, the results for the EC50 in assay [1] and in assay [2] were > 60 µM (not active) and 1.27 µM (active), respectively.
